≈ marks a conversion by molar mass, not a printed value.
Legend:
adenylyl cyclase [1] = experiment: FACS forskolin response of T-REx-CRE-bla-CHO-K1 pool; assay type: cell-based, Chinese hamster; conditions: T-REx-CRE-bla-CHO-K1 selected pool
Source text: (§1) The transfected and antibiotic selected T-REx™-CRE-bla-CHO-K1 and T-REx™-GPR23-CRE-bla-CHO-K1 clones were sorted for their responsiveness to forskolin. Forskolin activates adenylyl cyclase and results in increased intracellular cAMP concentrations which in turn lead to increased production of beta-lactamase from the CRE response element. Forskolin response of the T-REx™-CRE-bla-CHO-K1 and T-REx™-GPR23-CRE-bla-CHO-K1 pools were determine using FACS. […] In addition, there was an increase in the constitutively active cells in the human GPR23 containing cells as compared to the parental as indicated by the un-stimulated blue levels. The responsive clones were collected at one cell per well in 96 well tissue culture plates then expanded and tested for there responsiveness to LPA.

adenylyl cyclase [2] = experiment: FACS forskolin response of T-REx-GPR23-CRE-bla-CHO-K1 pools; assay type: cell-based, Chinese hamster
Source text: as §1

[3] = tested on: T-REx™-G2A-NFAT-bla Freestyle™293F cells; experiment: T-REx G2A NFAT-bla Freestyle 293F beta-lactamase reporter assay (inducer dose response)
Method: (§2) In order to control the levels of G2A expression, G2A was placed under the control of an inducible promoter using Invitrogen's T-REx™ system. To again assess feasibility, pcDNA 5 G2A/TO was transiently transfected into CRE-bla Freestyle™ and NFAT-bla Freestyle™ cell lines stably expressing the T-REx™ Tet repressor plasmid (pcDNA6/TR; e.g., catalog# V1025-20, Invitrogen, Carlsbad, Calif.). The transfected cells were then treated with 10 ug/mL, 1 ug/mL, or 100 ng/mL tetracycline for 24 h to induce G2A expression. […] Stable pools of cells were created in both the TR CRE-bla and TR NFAT-bla Freestyle™293F backgrounds.
(§3) Stimulation Kinetics—Selected pools of both CRE-bla and NFAT-bla T-REx™ G2A Freestyle™ cells were stimulated with tetracycline for 3, 4, 5, or 24 h and loaded for 2 h with 1 μM LiveBLAzer™-FRET B/G substrate.
To improve the balance between tetracycline-induced signaling and cell death by testing shorter induction times, lower tetracycline concentrations and altered culture conditions were utilized to promote cell health. A 16 h tetracycline stimulation time was attempted on the pools from the first sort. Cells were plated at 10,000 cells/well 24 hours prior to assay in DMEM+10% dFBS and incubated at 37° C./5% CO2 until time of assay. The cells were stimulated for 16 hours (e.g., overnight) with a dilution series of the tetracycline. Following stimulation, the cells were loaded for 2 hours at room temperature in the dark with LiveBLAzer™-FRET B/G loading solution containing 1 μM substrate. This assay was done in Poly-D-Lysine coated plates.
Since G2A has no known agonists, doxycycline and tetracycline were compared as inducers of the assay. An antibiotic selected pool of cells were plated at 10,000 cells/well 24 hours prior to assay in DMEM+10% dFBS and incubated at 37° C./5% CO2 until time of assay. The cells were stimulated with a dilution series of each compound for 16 hours at 37° C./5% CO2 and loaded for 2 hours at room temperature in the dark with LiveBLAzer™-FRET B/G loading solution containing 1 μM substrate.
Cell Density/well—The influence of cell-plating density on assay performance was tested to find the density giving the best response and Z′ while maintaining the expected pharmacology. Cells were plated 24 hours prior to the assay at the densities indicated in FIG. 14 in DMEM+10% dFBS and incubated at 37° C./5% CO2 until the time of assay. The cells were stimulated for 16 hours at 37° C./5% CO2 with a dilution series of the doxycycline. After incubation, the cells were loaded for 2 hours at room temperature in the dark with LiveBLAzer™-FRET B/G loading solution containing 1 μM substrate.
DMSO Tolerance—Tests were performed related to assay performance as a function of DMSO concentration to determine the robustness of the assay to the range of DMSO challenge routinely encountered during high-throughput screening. Dose response curves were performed in the presence of 0%, 0.25%, 0.5%, or 1% DMSO. Cells were plated at 10,000 cells/well 24 hours prior to assay in DMEM+10% dFBS and incubated at 37° C./5% CO2 until time of assay. After incubation, DMSO was added to the wells to final concentrations of 0%, 0.25%, 0.5% and 1% DMSO. The cells were stimulated for 16 hours with a dilution series of the doxycycline. Following stimulation, the cells were loaded for 2 hours at room temperature in the dark with LiveBLAzer™-FRET B/G loading solution containing 1 μM substrate.
The substrate loading times were varied to find the time for an optimal assay performance. Cells were plated at 10,000 cells/well 24 hours prior to assay in DMEM+10% dFBS and incubated at 37° C./5% CO2 until time of assay. After incubation, DMSO was added to the wells to final concentration of 0.5%.

[4] = tested on: T-REx™ G2A CRE-bla Freestyle™ 293F cells; conditions: selected pool; 24 h tetracycline stimulation
Method: as §2, §3

[5] = tested on: T-REx™-GPR23-CRE-bla-CHO-K1 clone H6-E2; experiment: T-REx-GPR23-CRE-bla-CHO-K1 clone H6-E2 beta-lactamase reporter assay (induction); assay type: cell-based, Chinese hamster; conditions: Clone H6-E2; 1 μg/ml tetracycline, 16 hrs
Method: Six clones selected for further testing were expanded and retested for their inducible GPR23 specific activity. The clones were plated at 25,000 cells per well in a 96 well black walled clear bottom tissue culture assay plate. The plates were than placed at 37° C. 5% CO2 for 24 hrs to allow the cells to attach to the assay plate. The complete media was then removed from the plate and replaced with assay media (DMEM+0.1% BSA) containing 100 ng/ml pertussis toxin with or without 1 μg/ml tetracycline. The plates were placed at 37° C. 5% CO2 for 16 hrs to allow the induced expression of the GPR23 receptor. The cells were then loaded with LiveBLAzer™-FRET B/G substrate (2 μM) containing solution D for 2 hrs. To determine the optimal cell density for this assay the cells were plated at 2,500, 5,000, 10,000, and 20,000 cells per well in a 384 well black walled clear bottom tissue culture assay plate in complete media (DMEM+10% FBS). The plates were than placed at 37° C. 5% CO2 for 24 hrs to allow the cells to attach to the assay plate. The complete media was then removed from the plate and replaced with assay media (DMEM+0.1% BSA) containing 100 ng/ml pertussis toxin and a four fold dilution series of doxycycline starting at 1 μg/ml. The plates were placed at 37° C./5% CO2 for 16 hrs to allow the induced expression of the GPR23 receptor. The cells were then loaded with LiveBLAzer™-FRET B/G substrate (2 μM) containing solution D for 2 hrs. The cells were plated at 20,000 cells per well in a 384 well black walled clear bottom tissue culture assay plate in complete media (DMEM+10% FBS). The plates were then placed at 37° C. 5% CO2 for 6 hrs to allow the cells to attach to the assay plate. The complete media was then removed from the plate and replaced with assay media (DMEM+0.1% BSA) containing 100 ng/ml pertussis toxin, 0%, 0.25%, 0.5%, or 1.0% DMSO, and a three fold dilution series of doxycycline starting at 1 μg/ml. The plates were placed at 37° C./5% CO2 for 16 hrs to allow the induced expression of the GPR23 receptor. The cells were then loaded with LiveBLAzer™-FRET B/G substrate (2 μM) containing solution D for 2 hrs. The cells were plated at 20,000 cells per well in a 384 well black walled clear bottom tissue culture assay plate in complete media (DMEM+10% FBS). The plates were than placed at 37° C. 5% CO2 for 6 hrs to allow the cells to attach to the assay plate. The complete media was then removed from the plate and replaced with assay media (DMEM+0.1% BSA) containing 100 ng/ml pertussis toxin, 0.5% DMSO, and a three fold dilution series of doxycycline starting at 1 μg/ml. The plates were placed at 37° C. 5% CO2 for 16, 20 or 24 hrs to allow the induced expression of the GPR23 receptor. The cells were then loaded with LiveBLAzer™-FRET B/G substrate (2 μM) containing solution D for 2 hrs. Dose response of T-REx-GPR23-CRE-bla CHO-K1 cells to Doxycycline. T-REx-GPR23-CRE-bla CHO-K1 cells were plated in Growth Media (+) and allowed to attach to the tissue culture plate for 6 hrs. They were then induced for GPR23 expression overnight with doxycycline for 16 hrs in Assay Media. Cells were then loaded with LiveBLAzer™-FRET B/G Substrate (CCF4-AM) for 2 hours. Fluorescence emission values at 460 nm and 530 nm were obtained using a standard florescence plate reader and the Blue/Green Emission Ratios were plotted against the indicated concentrations of doxycycline (FIG. 40).

SMILES | increase in the percentage of cells in the "Blue" (responding) gate, stimulated verses un-stimulated (adenylyl cyclase [1]) | increase in the "Blue" gate, stimulated verses un-stimulated (adenylyl cyclase [2]; T-REx-GPR23-CRE-bla-CHO-K1 E1) | increase in the "Blue" gate, stimulated verses un-stimulated (adenylyl cyclase [2]; T-REx-GPR23-CRE-bla-CHO-K1 H6) | EC50 ([3]; Homo sapiens, FreeStyle 293-F, antibiotic selected pool, 10,000 cells/well, 16 h stimulation, 2 h loading) | RR (Max) ([3]; antibiotic selected pool, 10,000 cells/well, 16 h stimulation) | cell death ([3]; selected pool, 24 h tetracycline stimulation) | cell death [4] | inducible response (induced versus uninduced) [5]
C=C[C@@]1(C)CC(=O)[C@]2(O)[C@@]3(C)[C@@H](O)CCC(C)(C)[C@@H]3[C@H](O)[C@H](OC(C)=O)[C@@]2(C)O1 [Forskolin] | ~10.7% | ~20% | ~21.1% |  |  |  |  | 
CN(C)[C@@H]1C(O)=C(C(N)=O)C(=O)[C@@]2(O)C(O)=C3C(=O)c4c(O)cccc4[C@@](C)(O)[C@H]3C[C@@H]12 [Tetracycline] |  |  |  | 0.046 µg/mL (≈ 0.104 µM) | 3.1 | substantial cell death | substantial cell death | about 9.2 fold
